Data taken from PubChem BioAssay (NCI).
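Each compound was tested at five concentrations against cells in 96-well plates for 48 hours. At the TGI there is no net growth.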

What was measured:
Experiment in all cases: NCI tumour cell line growth inhibition, 48 h
SF-295 CNS = system: SF-295 CNS
OVCAR-8 ovarian = system: OVCAR-8 ovarian
HOP-62 NSCLC = system: HOP-62 NSCLC
TK-10 renal = system: TK-10 renal
NCI-H226 lung = system: NCI-H226 lung
COLO 205 colon = system: COLO 205 colon
NCI-H23 lung = system: NCI-H23 lung
SNB-19 CNS = system: SNB-19 CNS
NCI-H460 lung = system: NCI-H460 lung
A549 NSCLC = system: A549 NSCLC
BT-549 breast = system: BT-549 breast
UO-31 renal = system: UO-31 renal
OVCAR-3 ovarian = system: OVCAR-3 ovarian
SR leukemia = system: SR leukemia
HOP-18 NSCLC = system: HOP-18 NSCLC
HL-60(TB) leukemia = system: HL-60(TB) leukemia
PC-3 prostate = system: PC-3 prostate
HCC-2998 colon = system: HCC-2998 colon
ACHN renal = system: ACHN renal
EKVX NSCLC = system: EKVX NSCLC
A498 renal = system: A498 renal
RPMI-8226 leukemia = system: RPMI-8226 leukemia
SK-MEL-2 melanoma = system: SK-MEL-2 melanoma
HCT-116 colon = system: HCT-116 colon
M14 melanoma = system: M14 melanoma
CCRF-CEM leukemia = system: CCRF-CEM leukemia
NCI-H522 lung = system: NCI-H522 lung
OVCAR-5 ovarian = system: OVCAR-5 ovarian
NCI/ADR-RES ovarian = system: NCI/ADR-RES ovarian
SNB-75 CNS = system: SNB-75 CNS
HT29 colon = system: HT29 colon
DU-145 prostate = system: DU-145 prostate
SK-MEL-28 melanoma = system: SK-MEL-28 melanoma
SN12C renal = system: SN12C renal
SW-620 colon = system: SW-620 colon
LXFL 529 NSCLC = system: LXFL 529 NSCLC
HOP-92 NSCLC = system: HOP-92 NSCLC
HCT-15 colon = system: HCT-15 colon
UACC-62 melanoma = system: UACC-62 melanoma
SK-OV-3 ovarian = system: SK-OV-3 ovarian
MALME-3M melanoma = system: MALME-3M melanoma
OVCAR-4 ovarian = system: OVCAR-4 ovarian
MCF7 breast = system: MCF7 breast
U251 CNS = system: U251 CNS
HS 578T breast = system: HS 578T breast
M19-MEL melanoma = system: M19-MEL melanoma
UACC-257 melanoma = system: UACC-257 melanoma
K-562 leukemia = system: K-562 leukemia
MDA-N = system: MDA-N
SK-MEL-5 melanoma = system: SK-MEL-5 melanoma
KM12 colon = system: KM12 colon
786-0 renal = system: 786-0 renal
IGROV1 ovarian = system: IGROV1 ovarian
MDA-MB-231 breast = system: MDA-MB-231 breast
MOLT-4 leukemia = system: MOLT-4 leukemia
SF-539 CNS = system: SF-539 CNS
MDA-MB-435 = system: MDA-MB-435
SF-268 CNS = system: SF-268 CNS

SMILES: CCO/C(O)=c1/s/c(=C2/SC(=S)N(c3ccc(C)cc3)C2=O)n(-c2ccccc2)c1=N
- TGI (SF-295 CNS): 59.7 µM
- TGI (OVCAR-8 ovarian): > 100 µM
- TGI (HOP-62 NSCLC): 81.9 µM
- TGI (TK-10 renal): > 100 µM
- TGI (NCI-H226 lung): > 76.9 µM
- TGI (COLO 205 colon): > 100 µM
- TGI (NCI-H23 lung): > 100 µM
- TGI (SNB-19 CNS): > 100 µM
- TGI (NCI-H460 lung): > 100 µM
- TGI (A549 NSCLC): > 100 µM
- TGI (BT-549 breast): > 100 µM
- TGI (UO-31 renal): > 100 µM
- TGI (OVCAR-3 ovarian): > 100 µM
- TGI (SR leukemia): > 100 µM
- TGI (HOP-18 NSCLC): > 100 µM
- TGI (HL-60(TB) leukemia): > 100 µM
- TGI (PC-3 prostate): > 100 µM
- TGI (HCC-2998 colon): > 100 µM
- TGI (ACHN renal): > 100 µM
- TGI (EKVX NSCLC): > 100 µM
- TGI (A498 renal): > 100 µM
- TGI (RPMI-8226 leukemia): > 100 µM
- TGI (SK-MEL-2 melanoma): > 100 µM
- TGI (HCT-116 colon): > 100 µM
- TGI (M14 melanoma): > 100 µM
- TGI (CCRF-CEM leukemia): > 100 µM
- TGI (NCI-H522 lung): > 100 µM
- TGI (OVCAR-5 ovarian): > 100 µM
- TGI (NCI/ADR-RES ovarian): > 100 µM
- TGI (SNB-75 CNS): 22 µM
- TGI (HT29 colon): > 100 µM
- TGI (DU-145 prostate): > 100 µM
- TGI (SK-MEL-28 melanoma): > 76.5 µM
- TGI (SN12C renal): > 100 µM
- TGI (SW-620 colon): > 100 µM
- TGI (LXFL 529 NSCLC): > 100 µM
- TGI (HOP-92 NSCLC): > 100 µM
- TGI (HCT-15 colon): > 100 µM
- TGI (UACC-62 melanoma): > 100 µM
- TGI (SK-OV-3 ovarian): > 76 µM
- TGI (MALME-3M melanoma): > 100 µM
- TGI (OVCAR-4 ovarian): 44.3 µM
- TGI (MCF7 breast): > 100 µM
- TGI (U251 CNS): > 100 µM
- TGI (HS 578T breast): 66.8 µM
- TGI (M19-MEL melanoma): > 100 µM
- TGI (UACC-257 melanoma): > 100 µM
- TGI (K-562 leukemia): > 100 µM
- TGI (MDA-N): > 100 µM
- TGI (SK-MEL-5 melanoma): > 100 µM
- TGI (KM12 colon): > 100 µM
- TGI (786-0 renal): 77.4 µM
- TGI (IGROV1 ovarian): > 100 µM
- TGI (MDA-MB-231 breast): 59 µM
- TGI (MOLT-4 leukemia): > 100 µM
- TGI (SF-539 CNS): 39 µM
- TGI (MDA-MB-435): > 100 µM
- TGI (SF-268 CNS): > 95.8 µM
